Data taken from patent US7709503B2, “Pyrrol derivatives with antibacterial activity” (AstraZeneca AB, priority 2003, dated 2010).
In brackets after ≈: the same amount, converted by molar mass.

Key:
Streptococcus pneumoniae = assay: Bacterial susceptibility testing in liquid media (Minimum Inhibitory Concentration); format: cell-based; details: against Streptococcus pneumoniae, 37 degrees C., 24 hrs, lowest concentration able to reduce growth by 80% or more
Procedure: Compounds were tested for antimicrobial activity by susceptibility testing in liquid media. Compounds were dissolved in dimethylsulfoxide and tested in 10 doubling dilutions in the susceptibility assays. The organisms used in the assay were grown overnight on suitable agar media and then suspended in a liquid medium appropriate for the growth of the organism. The suspension was a 0.5 McFarland and a further 1 in 10 dilution was made into the same liquid medium to prepare the final organism suspension in 100 μL. Plates were incubated under appropriate conditions at 37 degrees C. for 24 hrs prior to reading. The Minimum Inhibitory Concentration was determined as the lowest drug concentration able to reduce growth by 80% or more.

Row | melting point | MIC (Streptococcus pneumoniae) | SMILES
1 | 232 to 234 °C |  | Cc1[nH]c(C(=O)NC2CCN(c3cc(C(=O)O)on3)CC2)c(Cl)c1Cl [Example 226, 3-(4-{[(3,4-Dichloro-5-methyl-1H-pyrrol-2-yl)carbonyl]amino}piperidin-1-yl)isoxazole-5-carboxylic acid]
2 | 254 to 256 °C |  | Cc1[nH]c(C(=O)NC2CCN(c3cc(C(=O)O)nc4ccccc34)CC2)c(Cl)c1Cl [Example 225, 4-(4-{[(3,4-Dichloro-5-methyl-1H-pyrrol-2-yl)carbonyl]amino}piperidin-1-yl)quinoline-2-carboxylic acid]
3 |  | 2 µg/mL (≈ 5.07 µM) | Cc1[nH]c(C(=O)NC2CCN(c3nc(C#N)cs3)CC2)cc1Br [Example 130, 4-Bromo-N-[1-(4-cyano-1,3-thiazol-2-yl)piperidin-4-yl]-5-methyl-1H-pyrrole-2-carboxamide]
